Measurements reported in publication PMC6333893, “Exquisite ligand stereoselectivity of a Drosophila juvenile hormone receptor contrasts with its broad agonist repertoire” (The Journal of Biological Chemistry, 2018).
Like-named read-outs stand apart in the source and are kept apart here.

How the values were obtained:
[1] = molecular target: T1, Gce (germ cell-expressed), Myc-tagged, in vitro translated (Drosophila melanogaster, UniProt Q9VXW7); test: competition against R,S-[3H]JH III, glass fiber filter; format: binding
T1 sequence (Q9VXW7 271-959): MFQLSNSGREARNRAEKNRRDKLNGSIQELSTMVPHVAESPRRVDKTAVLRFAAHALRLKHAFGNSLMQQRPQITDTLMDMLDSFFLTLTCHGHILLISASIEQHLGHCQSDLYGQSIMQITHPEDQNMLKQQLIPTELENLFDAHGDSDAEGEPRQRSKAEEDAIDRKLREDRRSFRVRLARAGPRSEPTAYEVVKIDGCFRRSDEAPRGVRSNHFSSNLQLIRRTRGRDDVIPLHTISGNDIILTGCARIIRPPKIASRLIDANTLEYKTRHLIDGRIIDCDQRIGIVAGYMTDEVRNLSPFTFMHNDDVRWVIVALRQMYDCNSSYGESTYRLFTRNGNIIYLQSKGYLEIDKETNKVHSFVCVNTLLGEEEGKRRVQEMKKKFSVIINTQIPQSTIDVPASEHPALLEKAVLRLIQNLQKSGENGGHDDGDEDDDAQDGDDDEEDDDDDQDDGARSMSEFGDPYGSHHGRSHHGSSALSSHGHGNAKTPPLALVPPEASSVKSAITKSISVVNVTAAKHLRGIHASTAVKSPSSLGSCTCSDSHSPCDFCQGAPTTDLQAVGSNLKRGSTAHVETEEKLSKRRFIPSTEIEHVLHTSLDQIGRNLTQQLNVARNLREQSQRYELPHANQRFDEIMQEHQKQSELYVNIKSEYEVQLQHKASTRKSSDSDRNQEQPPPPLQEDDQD

[2] = molecular target: T2, endogenous Gce in Drosophila S2 cells (JHRE-luc) (Drosophila melanogaster, UniProt Q9VXW7); test: JHRE-luc reporter activation in S2 cells; format: cell-based; settings: 8 h, transfected Tai, agonist
T2 construct: endogenous Gce of S2 cells, transfected D. melanogaster Tai and JHRE-luc reporter

[3] = read-out: Affinity of ligand binding to Gce (Ki)^a

T2 sequence (Q9VLD9 1-2026 partner, one chain of several): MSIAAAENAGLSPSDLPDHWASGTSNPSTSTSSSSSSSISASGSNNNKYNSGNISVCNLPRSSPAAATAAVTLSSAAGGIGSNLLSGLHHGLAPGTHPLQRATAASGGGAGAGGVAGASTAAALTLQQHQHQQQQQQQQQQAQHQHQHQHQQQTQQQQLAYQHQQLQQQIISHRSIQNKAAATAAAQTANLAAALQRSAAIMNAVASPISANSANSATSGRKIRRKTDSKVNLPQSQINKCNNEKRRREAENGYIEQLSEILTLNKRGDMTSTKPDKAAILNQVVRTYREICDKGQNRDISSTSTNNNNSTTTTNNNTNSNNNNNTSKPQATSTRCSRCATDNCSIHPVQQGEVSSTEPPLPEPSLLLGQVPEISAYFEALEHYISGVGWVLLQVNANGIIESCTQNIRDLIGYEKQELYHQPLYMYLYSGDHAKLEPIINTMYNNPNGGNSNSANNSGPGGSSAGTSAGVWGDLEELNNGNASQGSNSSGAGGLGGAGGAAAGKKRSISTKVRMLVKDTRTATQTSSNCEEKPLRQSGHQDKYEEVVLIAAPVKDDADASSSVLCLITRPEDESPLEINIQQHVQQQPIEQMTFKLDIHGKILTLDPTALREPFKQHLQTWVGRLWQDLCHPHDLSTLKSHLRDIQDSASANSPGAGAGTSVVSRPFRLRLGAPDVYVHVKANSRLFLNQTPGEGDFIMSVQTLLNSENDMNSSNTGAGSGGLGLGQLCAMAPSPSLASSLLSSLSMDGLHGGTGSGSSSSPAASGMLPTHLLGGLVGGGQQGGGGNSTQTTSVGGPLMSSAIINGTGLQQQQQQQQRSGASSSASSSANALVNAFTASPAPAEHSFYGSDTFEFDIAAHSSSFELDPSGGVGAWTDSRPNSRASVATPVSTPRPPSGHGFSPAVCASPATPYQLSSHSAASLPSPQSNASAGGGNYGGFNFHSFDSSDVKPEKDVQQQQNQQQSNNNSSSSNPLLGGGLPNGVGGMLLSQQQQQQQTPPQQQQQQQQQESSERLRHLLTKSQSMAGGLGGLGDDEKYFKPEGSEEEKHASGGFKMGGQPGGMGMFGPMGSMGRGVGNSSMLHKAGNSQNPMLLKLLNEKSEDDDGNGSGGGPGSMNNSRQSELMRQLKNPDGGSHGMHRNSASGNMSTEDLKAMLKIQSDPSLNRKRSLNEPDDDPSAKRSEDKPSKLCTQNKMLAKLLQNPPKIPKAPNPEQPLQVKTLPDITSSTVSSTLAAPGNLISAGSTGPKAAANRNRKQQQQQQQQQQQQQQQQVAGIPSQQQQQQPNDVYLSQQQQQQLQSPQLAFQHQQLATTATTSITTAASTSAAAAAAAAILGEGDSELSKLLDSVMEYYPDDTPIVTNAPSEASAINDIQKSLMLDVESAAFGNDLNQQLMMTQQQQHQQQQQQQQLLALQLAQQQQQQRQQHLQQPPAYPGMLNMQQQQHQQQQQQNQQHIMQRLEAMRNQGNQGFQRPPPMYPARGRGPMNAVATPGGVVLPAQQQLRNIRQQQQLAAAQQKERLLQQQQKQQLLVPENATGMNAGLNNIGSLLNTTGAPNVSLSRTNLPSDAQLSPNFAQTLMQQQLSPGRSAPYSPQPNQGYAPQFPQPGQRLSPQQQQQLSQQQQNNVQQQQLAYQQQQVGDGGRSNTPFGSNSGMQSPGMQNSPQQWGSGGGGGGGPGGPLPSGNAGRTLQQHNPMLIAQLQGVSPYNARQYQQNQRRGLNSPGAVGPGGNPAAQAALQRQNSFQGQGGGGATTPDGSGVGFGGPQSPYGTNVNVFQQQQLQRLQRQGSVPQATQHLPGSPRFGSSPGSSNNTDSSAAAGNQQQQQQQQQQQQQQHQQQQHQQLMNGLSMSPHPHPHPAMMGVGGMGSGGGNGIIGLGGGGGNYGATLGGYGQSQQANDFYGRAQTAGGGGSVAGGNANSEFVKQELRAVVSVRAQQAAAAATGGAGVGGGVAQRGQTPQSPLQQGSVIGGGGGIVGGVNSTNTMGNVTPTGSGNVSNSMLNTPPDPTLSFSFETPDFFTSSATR

| Compound | Ki [1, 3] [nM] | Ki ([1]; read-out: Ki) [nM] | EC50 ([2]; read-out: EC50) [nM] | further results |
| --- | --- | --- | --- | --- |
| CC/C(=C\CC/C(C)=C\C(=O)OC)CC[C@H]1O[C@]1(C)CC [R-(Z,E)-JH I] | 2400 |  |  |  |
| CCOC(=O)NCCOc1ccc(CC2CCCCC2O)cc1 (centres unmarked) [W330, Ethyl N-{2-{4-[(2-hydroxycyclohexyl)methyl]phenoxy}ethyl}carbamate] |  | 17.4 ± 5.7 | 5.42 ± 0.41 |  |
| CC/C(=C/CC/C(C)=C/C(=O)OC)CC[C@H]1O[C@]1(C)CC [R-(E,Z)-JH I] | 479 |  |  |  |
| CC/C(=C/CC/C(C)=C\C(=O)OC)CC[C@H]1O[C@]1(C)CC [R-(Z,Z)-JH I] | 28900 |  |  |  |
| COC(=O)/C=C(\C)CC/C=C(\C)CCC1OC1(C)C (centres unmarked) [R,S-JH III] |  | 11 ± 2.2 |  | EC50 ([2]; racemic compound, read-out: EC50): 210 ± 140 nM |
| COC(=O)/C=C(\C)CC/C=C(\C)CCC=C(C)C [MF] |  | 89.8 ± 26.7 | 4430 ± 950 |  |
| COC(=O)/C=C(\C)CCC1OC1(C)CCC1OC1(C)C (centres unmarked) [JHB3] |  | 83.3 ± 40.8 | 110 ± 10 |  |
| COC(=O)/C=C(\C)CC/C=C(\C)CC[C@H]1OC1(C)C [R-JH III] |  | 4.8 ± 1.3 | 930 ± 380 |  |
| CC/C(=C\CC/C(C)=C/C(=O)OC)CC[C@H]1O[C@@]1(C)CC [S-(E,E)-JH I] |  | 13.8 ± 5.1 | 370 ± 220 |  |

Now from value to compound, other results behind:

| Ki [1, 3] [nM] | Ki ([1]; read-out: Ki) [nM] | EC50 ([2]; read-out: EC50) [nM] | Compound | further results |
| --- | --- | --- | --- | --- |
|  | 2.8 ± 1.1 | 2.29 ± 0.65 | CCOC(=O)NCCOc1ccc(Oc2ccccc2)cc1 [fenoxycarb, ethyl N-[2-(4-phenoxyphenoxy)ethyl]carbamate] |  |
| 447 |  |  | CC/C(=C/CC/C(C)=C/C(=O)OC)CC[C@H]1O[C@@]1(C)CC [S-(E,Z)-JH I] |  |
| 22600 |  |  | CC/C(=C/CC/C(C)=C\C(=O)OC)CC[C@H]1O[C@@]1(C)CC [S-(Z,Z)-JH I] |  |
|  | 143 ± 45 |  | CC/C(C)=C/CC/C(=C/CC/C(C)=C/C(=O)OC)CC [deoxy-JH I, methyl (2E,6E,10E)-7-ethyl-3,11-dimethyltrideca-2,6,10-trienoate] |  |
|  | 38.3 ± 5.2 |  | COC(=O)/C=C(\C)CC/C=C(\C)CC[C@@H]1OC1(C)C [S-JH III] | EC50 ([2]; unreliable (no saturation reached)): 4460 ± 2950 nM |
| 614 |  |  | CC/C(=C\CC/C(C)=C\C(=O)OC)CC[C@H]1O[C@@]1(C)CC [S-(Z,E)-JH I] |  |
